Structures are written as SMILES.

This is an account of results in PMC8692498, “Synthesis and multifaceted pharmacological activity of novel quinazoline NHE-1 inhibitors” (Scientific Reports, 2021).

One series deals with IL-6 secretion. Briefly: Interleukin-6 secretion (ELISA) from LPS-stimulated peritoneal macrophages. The class given is cell-based, mice. Conditions: male, C57BL/6J, mouse, primary peritoneal macrophages stimulated with LPS; CC50 versus IC50 of IL-6 secretion; read-out: selectivity of IL-6 inhibition over cytotoxicity. How it is done: (§1) Peritoneal macrophages (PM) were isolated from the peritoneal exudate of 30 male C57bl/6j mice. To accumulate PM, 1 ml of 3% peptone solution was injected intraperitoneally. After 3 days the mice were euthanized by cervical dislocation. Cells of peritoneal exudate were obtained by aseptically washing the abdominal cavity with 5 ml of sterile Hanks’s solution (+ 4-6 °C) without calcium and magnesium ions. The total number and viability of cells were assessed in a Goryaev counting chamber (Russia) with a 0.4% trypan blue staining (Sigma-Aldrich, USA). The cell concentration was adjusted to 1.0×10^6 cells/ml in DMEM (Gibco) supplemented with 2 mM L-glutamine (Gibco), 10% heat-inactivated fetal bovine serum (BioClot, Germany), 100 U/ml penicillin and […] streptomycin (Gibco) and plated 200 μl/well in 96-well transparent plates (SPL Life Sciences Co., Ltd., Korea). It was left for 2 h at 37°C in a humidified atmosphere with 5% CO2, after which the wells were washed to remove non-adherent cells. After 24 hours of incubation, 20 μl of the supernatant was removed and 20 μl of solutions of test compounds were added 30 min before E. coli O127:B8 LPS (100 ng/ml final concentration). Experiments were run in 3 independent replicates.
(§2) Cell supernatant was collected and centrifuged at 1000 g for 20 min in a 2-16PK Sigma centrifuge (Germany). The concentration of IL-6 was determined by ELISA using a commercial kit (Cloud-clone ELISA kit) with a microplate reader Infinite M200 PRO (Tecan, Austria).
(An ELISA detects its analyte on a solid surface through an enzyme-linked reagent.)

The test system of series [1] is primary peritoneal macrophages of C57BL/6J mice. The description is as above. The class given is cell-based. How it is done:
as §1, §2

The nature of series [2]: Solubility under the conditions of the platelet aggregation assay. In kind it is physicochemical. The note with it: antiplatelet assay. The method, then: Test compounds were dissolved in 99% DMSO (stock concentration 40 mM) and stored at –25 °C. If sediment or opalescence was detected, 5% Tween 20 (Merck) was added. Serial dilutions were prepared ex tempore in a media suitable for the particular study. Final concentration in samples: DMSO <0.25%, Tween 20 <0.025% (were added to control samples in equal concentrations).
Functional activity of platelets was determined on a two-channel laser analyzer of platelet aggregation "BIOLA-220 LA" (Russia) as described previously. The experiments were carried out on 6 male rabbits weighing 3.5–4 kg. To prepare platelet-rich plasma (PRP) venous blood was taken from the ear marginal vein of a rabbit, stabilized with a 3.8% sodium citrate solution in a ratio of 9:1 and centrifuged for 10 min at 1500 rpm. PRP (300 μL) and a solution of the test compound at a concentration of 100 μM were sequentially introduced into the cell of the aggregometer. The samples were incubated in thermostated cells of the aggregometer at 37 °C for 5 min. To induce aggregation adenosine-5-diphosphoric acid (ADP, Sigma, USA) at a final concentration of 5 μM, was added to the cuvette. Acetylsalicylic acid (Shandong Xinhua Pharmaceutical Co., Ltd., China) was used as a reference drug. Experiments were run in 5 independent replicates.

As to `Cn1c(=O)n(Cc2nnc(N)[nH]2)c(=O)c2ccccc21` [Compound 3e, 3-[(5-Amino-4H-1,2,4-triazol-3-yl)methyl]-1-methylquinazoline-2,4(1H,3H)-dione], the selectivity ratio with IL-6 secretion was 4 to 6. Further, in series [1] (LPS-stimulated macrophages, screening (Fig. 4)), the “secretion of interleukin 6” value is recorded as “suppressed”. In series [1] (Mus musculus, Peritoneal macrophage, LPS-stimulated murine macrophages, read-out: IC50 of IL-6 synthesis/secretion), the IC50 came to 32.1 µM. Besides, the “solubility under assay conditions” value in series [2] was “insoluble under assay conditions”.
